# In article PMC6364417, “Kinase inhibitor library screening identifies synergistic drug combinations effective in sensitive and resistant melanoma cells” (Journal of Experimental & Clinical Cancer Research : CR, 2019):
# What was measured:
# Experiment in all cases: Kinase inhibitor library screening, PrestoBlue cell viability, 1 or 10 μM, 72 h
# 501Mel cells (parental) = settings: 72 h
# Summary of the method: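 Kinase inhibitors added at two fixed concentrations; 72 h exposure; PrestoBlue readout; % viability vs untreated; n ≥ 2 per line.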
# A375 cells (parental) = test system: A375 cells (parental)
# [1] = test system: IGR37-XP cells (Vemurafenib-resistant)
# [2] = test system: A375-GP cells (Dabrafenib-resistant)
# [3] = test system: IGR37-GP cells (Dabrafenib-resistant)
# IGR37 cells (parental) = test system: IGR37 cells (parental)
# [4] = test system: 501Mel-GP cells (Dabrafenib-resistant); settings: 72 h
# [5] = test system: 501Mel-XP cells (Vemurafenib-resistant); settings: 72 h
# [6] = test system: A375-XP cells (Vemurafenib-resistant)
compound,measurement,setting,value
CN1CCN(C2CCN(C(=O)Nc3cc(Oc4ccc(NC(=O)C5(C(=O)Nc6ccc(F)cc6)CC5)c(F)c4)ccn3)CC2)CC1 [Golvatinib (E7050)],cell viability (kinase inhibitor library screening),"501Mel cells (parental); 501Mel Parental, 1μΜ",96.5%
same,cell viability (kinase inhibitor library screening),"501Mel cells (parental); 501Mel Parental, 10μΜ",0.148%
same,cell viability (kinase inhibitor library screening),"A375 cells (parental); A375 Parental, 10μΜ, 72 h",70.5%
same,cell viability (kinase inhibitor library screening),"A375 cells (parental); A375 Parental, 1μΜ, 72 h",93.1%
same,cell viability (kinase inhibitor library screening),"[1]; IGR37 XP, 1μΜ, 72 h",95.2%
same,cell viability (kinase inhibitor library screening),"[1]; IGR37 XP, 10μΜ, 72 h",10.4%
same,cell viability (kinase inhibitor library screening),"[2]; A375 GP, 1μΜ, 72 h",103.0%
same,cell viability (kinase inhibitor library screening),"[2]; A375 GP, 10μΜ, 72 h",53.0%
same,cell viability (kinase inhibitor library screening),"[3]; IGR37 GP, 1μΜ, 72 h",92.1%
same,cell viability (kinase inhibitor library screening),"[3]; IGR37 GP, 10μΜ, 72 h",49.6%
same,cell viability (kinase inhibitor library screening),"IGR37 cells (parental); IGR37 Parental, 1μΜ, 72 h",99.0%
same,cell viability (kinase inhibitor library screening),"IGR37 cells (parental); IGR37 Parental, 10μΜ, 72 h",18.3%
same,cell viability (kinase inhibitor library screening),"[4]; 501Mel GP, 1μΜ",81.2%
same,cell viability (kinase inhibitor library screening),"[4]; 501Mel GP, 10μΜ",-0.26%
same,cell viability (kinase inhibitor library screening),"[5]; 501Mel XP, 1μΜ",66.2%
same,cell viability (kinase inhibitor library screening),"[5]; 501Mel XP, 10μΜ",-0.363%
same,cell viability (kinase inhibitor library screening),"[6]; A375 XP, 1μΜ, 72 h",99.6%
same,cell viability (kinase inhibitor library screening),"[6]; A375 XP, 10μΜ, 72 h",65.0%
CCn1c(=O)c(-c2cc[nH]n2)cc2c(C)nc(N)nc21 [XL765],"Cell viability in kinase inhibitor library screening, 501Mel Parental, 1μΜ","501Mel cells (parental); 501Mel Parental, 1μΜ, in %",93.5
same,"Cell viability in kinase inhibitor library screening, 501Mel Parental, 10μΜ","501Mel cells (parental); 501Mel Parental, 10μΜ, in %",98.4
same,"Cell viability in kinase inhibitor library screening, A375 Parental, 1μΜ","A375 cells (parental); A375 Parental, 1μΜ, 72 h",105.9
same,"Cell viability in kinase inhibitor library screening, IGR37 XP, 10μΜ","[1]; IGR37 XP, 10μΜ, 72 h",68.4%
same,"Cell viability in kinase inhibitor library screening, A375 GP, 10μΜ","[2]; A375 GP, 10μΜ, 72 h",92.4
same,"Cell viability in kinase inhibitor library screening, IGR37 GP, 10μΜ","[3]; IGR37 GP, 10μΜ, 72 h",96.8%
same,"Cell viability in kinase inhibitor library screening, IGR37 GP, 1μΜ","[3]; IGR37 GP, 1μΜ, 72 h, in %",95.1
same,"Cell viability in kinase inhibitor library screening, IGR37 Parental, 1μΜ","IGR37 cells (parental); IGR37 Parental, 1μΜ, 72 h, in %",100.4
same,"Cell viability in kinase inhibitor library screening, IGR37 Parental, 10μΜ","IGR37 cells (parental); IGR37 Parental, 10μΜ, 72 h, in %",106.2
same,"Cell viability in kinase inhibitor library screening, 501Mel GP, 1μΜ","[4]; 501Mel GP, 1μΜ, in %",109.6
same,"Cell viability in kinase inhibitor library screening, 501Mel GP, 10μΜ","[4]; 501Mel GP, 10μΜ, in %",92.1
same,"Cell viability in kinase inhibitor library screening, 501Mel XP, 1μΜ","[5]; 501Mel XP, 1μΜ, in %",96.7
same,"Cell viability in kinase inhibitor library screening, 501Mel XP, 10μΜ","[5]; 501Mel XP, 10μΜ, in %",77.0
same,"Cell viability in kinase inhibitor library screening, A375 XP, 1μΜ","[6]; A375 XP, 1μΜ, 72 h",106.1
O=C1Nc2ccccc2/C1=C1/Nc2ccccc2C1=O [Indirubin],viability at 1 µM,"501Mel cells (parental); Homo sapiens, read-out: cell viability, 501Mel Parental, 1μΜ",104%
same,viability at 10 µM,"501Mel cells (parental); Homo sapiens, read-out: cell viability, 501Mel Parental, 10μΜ",101%
same,viability at 1 µM,"A375 cells (parental); Homo sapiens, A-375, 72 h, read-out: cell viability, A375 Parental, 1μΜ",101%
same,viability at 10 µM,"A375 cells (parental); Homo sapiens, A-375, 72 h, read-out: cell viability, A375 Parental, 10μΜ",95.1%
same,viability at 1 µM,"[1]; Homo sapiens, IGR-37, 72 h, read-out: cell viability, IGR37 XP, 1μΜ",95.7%
same,viability at 10 µM,"[1]; Homo sapiens, IGR-37, 72 h, read-out: cell viability, IGR37 XP, 10μΜ",75.6%
same,viability at 1 µM,"[2]; Homo sapiens, A-375, 72 h, read-out: cell viability, A375 GP, 1μΜ",95.3%
same,viability at 10 µM,"[2]; Homo sapiens, A-375, 72 h, read-out: cell viability, A375 GP, 10μΜ",96.4%
same,viability at 1 µM,"[3]; Homo sapiens, IGR-37, 72 h, read-out: cell viability, IGR37 GP, 1μΜ",94.7%
same,viability at 10 µM,"[3]; Homo sapiens, IGR-37, 72 h, read-out: cell viability, IGR37 GP, 10μΜ",91.3%
same,viability at 1 µM,"IGR37 cells (parental); Homo sapiens, IGR-37, 72 h, read-out: cell viability, IGR37 Parental, 1μΜ",100%
same,viability at 10 µM,"IGR37 cells (parental); Homo sapiens, IGR-37, 72 h, read-out: cell viability, IGR37 Parental, 10μΜ",105%
same,viability at 1 µM,"[4]; Homo sapiens, read-out: cell viability, 501Mel GP, 1μΜ",102%
same,viability at 10 µM,"[4]; Homo sapiens, read-out: cell viability, 501Mel GP, 10μΜ",91.5%
same,viability at 1 µM,"[5]; Homo sapiens, read-out: cell viability, 501Mel XP, 1μΜ",88.9%
same,viability at 10 µM,"[5]; Homo sapiens, read-out: cell viability, 501Mel XP, 10μΜ",70.4%
same,viability at 1 µM,"[6]; Homo sapiens, A-375, 72 h, read-out: cell viability, A375 XP, 1μΜ",102%
same,viability at 10 µM,"[6]; Homo sapiens, A-375, 72 h, read-out: cell viability, A375 XP, 10μΜ",103%
CO[C@@H](C(=O)N1Cc2n[nH]c(NC(=O)c3ccc(N4CCN(C)CC4)cc3)c2C1)c1ccccc1 [Danusertib (PHA-739358)],cell viability (kinase inhibitor library screening),"501Mel cells (parental); 501Mel Parental, 1μΜ",94.3%
same,cell viability (kinase inhibitor library screening),"501Mel cells (parental); 501Mel Parental, 10μΜ",80.7%
same,cell viability (kinase inhibitor library screening),"A375 cells (parental); A375 Parental, 10μΜ, 72 h",28.0%
same,cell viability (kinase inhibitor library screening),"A375 cells (parental); A375 Parental, 1μΜ, 72 h",51.2%
same,cell viability (kinase inhibitor library screening),"[1]; IGR37 XP, 10μΜ, 72 h",21.3%
same,cell viability (kinase inhibitor library screening),"[2]; A375 GP, 1μΜ, 72 h",48.5%
same,cell viability (kinase inhibitor library screening),"[2]; A375 GP, 10μΜ, 72 h",27.8%
same,cell viability (kinase inhibitor library screening),"[3]; IGR37 GP, 10μΜ, 72 h",66.0%
same,cell viability (kinase inhibitor library screening),"IGR37 cells (parental); IGR37 Parental, 10μΜ, 72 h",59.2%
same,cell viability (kinase inhibitor library screening),"[4]; 501Mel GP, 1μΜ",94.8%
same,cell viability (kinase inhibitor library screening),"[4]; 501Mel GP, 10μΜ",72.3%
same,cell viability (kinase inhibitor library screening),"[5]; 501Mel XP, 1μΜ",84.5%
same,cell viability (kinase inhibitor library screening),"[5]; 501Mel XP, 10μΜ",58.4%
same,cell viability (kinase inhibitor library screening),"[6]; A375 XP, 1μΜ, 72 h",53.8%
same,cell viability (kinase inhibitor library screening),"[6]; A375 XP, 10μΜ, 72 h",35.5%
